The record followed here is PubChem BioAssay AID256 (DTP/NCI, 2004).

Values joined by “and” are separate entries in the source; they are usually repeats but may differ in a detail not shown here. Equal values may be shown once. Inconclusive results and toxic doses are left out.

The experiment deals with CD2F1 mice, L1210 leukemia ip, survival T/C. The experiment can be described thus: NCI In Vivo Anticancer Drug Screen. Data for tumor model L1210 Leukemia (intraperitoneal) in CD2F1 (CDF1) mice. The note with it: higher = longer survival. In outline:
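Each value reflects a quotient of treated over vehicle control outcomes in mice with a transplanted tumor.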

The mark [1] stands for this setting: endpoint: mean survival time, dose: 100.0 mg/kg/injection, schedule: Q01DX009 (ip), vehicle: saline with Tween-80.
[2] abbreviates: endpoint: mean survival time, dose: 100.0 mg/kg/injection, schedule: Q04DX003 (ip), vehicle: saline with Tween-80.
The mark [3] stands for this setting: endpoint: mean survival time, dose: 200.0 mg/kg/injection, schedule: Q04DX003 (ip), vehicle: saline with Tween-80.
The mark [4] stands for this setting: endpoint: mean survival time, dose: 400.0 mg/kg/injection, schedule: Q04DX003 (ip), vehicle: saline with Tween-80.
The mark [5] stands for this setting: endpoint: mean survival time, dose: 100.0 mg/kg/injection, schedule: Q01DX009 (ip), vehicle: saline.
[6] abbreviates: endpoint: mean survival time, dose: 200.0 mg/kg/injection, schedule: Q01DX009 (ip), vehicle: saline.
The mark [7] stands for this setting: endpoint: mean survival time, dose: 100.0 mg/kg/injection, schedule: Q04DX003 (ip), vehicle: saline.
[8] abbreviates: endpoint: mean survival time, dose: 200.0 mg/kg/injection, schedule: Q04DX003 (ip), vehicle: saline.
Setting [9] is: endpoint: mean survival time, dose: 25.0 mg/kg/injection, schedule: Q01DX009 (ip), vehicle: saline with Tween-80.
The mark [10] stands for this setting: endpoint: mean survival time, dose: 50.0 mg/kg/injection, schedule: Q01DX009 (ip), vehicle: saline with Tween-80.

`NC(CSC(c1ccccc1)(c1ccccc1)c1ccccc1)C(=O)O` (configuration not stated) (tested in a mixture with another compound): the T/C (endpoint: mean survival time, dose: 5.5 mg/kg/injection, schedule: Q04DX003 (ip), vehicle: water) is 105 % of control; the T/C (endpoint: mean survival time, dose: 8.3 mg/kg/injection, schedule: Q04DX003 (ip), vehicle: water) is 102 % of control; the T/C (endpoint: mean survival time, dose: 12.4 mg/kg/injection, schedule: Q04DX003 (ip), vehicle: water) was 102 % of control; the T/C (endpoint: mean survival time, dose: 18.6 mg/kg/injection, schedule: Q04DX003 (ip), vehicle: water) was 108 % of control; the T/C (endpoint: mean survival time, dose: 28.0 mg/kg/injection, schedule: Q04DX003 (ip), vehicle: water) is 103 % of control; the T/C (endpoint: mean survival time, dose: 42.0 mg/kg/injection, schedule: Q04DX003 (ip), vehicle: water) was 103 % of control. The T/C (endpoint: mean survival time, dose: 63.0 mg/kg/injection, schedule: Q04DX003 (ip), vehicle: water) is 90 % of control.
In the case of `Cc1cc(Cl)ccc1NC(=O)CCl`, the T/C is, setting by setting: under setting [1], 93 % of control; under setting [2], 100 % of control; (endpoint: mean survival time, dose: 200.0 mg/kg/injection, schedule: Q01DX009 (ip), vehicle: saline with Tween-80) 88 % of control; under setting [3], 105 % of control; (endpoint: mean survival time, dose: 400.0 mg/kg/injection, schedule: Q01DX009 (ip), vehicle: saline with Tween-80) 96 % of control; under setting [4], 92 % of control.
Turning to `NS(=O)(=O)c1ccc(NC2OCC(O)C(O)C2O)cc1` (configuration not stated), the T/C runs as follows: under setting [5], 103 % of control; under setting [2], 93 % of control; under setting [6], 104 % of control; under setting [3], 98 % of control; (endpoint: mean survival time, dose: 400.0 mg/kg/injection, schedule: Q01DX009 (ip), vehicle: saline) 103 % of control; under setting [4], 101 % of control.
With `N/N=C\C(=N/N)C(O)C(O)C(O)CO` (configuration not stated), where the note is “endpoint: mean survival time, dose: 100.0 mg/kg/injection, schedule: Q01DX001 (ip), vehicle: saline with Tween-80”, the T/C is 87 % of control.
Regarding `CCOCCNCc1ccc(Cl)cc1Cl`, the T/C under setting [2] is 91 % of control and the T/C under setting [3] was 94 % of control.
As to `CCCOc1ccc(/C=N\N=C\c2ccc(OCCC)cc2)cc1`, the T/C runs as follows: under setting [2], 89 % of control; under setting [3], 89 % of control; under setting [4], 91 % of control.
Consider `CC(C(=O)O)C(C(=O)O)C(=O)O` (configuration not stated), for which the T/C is, setting by setting: under setting [7], 93 % of control; under setting [8], 96 % of control.
With `CN(C)NC(=O)/C=C\C(=O)O`, the T/C under setting [5] was 101 % of control and the T/C under setting [6] is 101 % of control.
For `COC(=O)CCC1c2[nH]c3ccccc3c2CCN1C` (configuration not stated), the T/C by setting is: under setting [2], 93 % of control; under setting [3], 102 % of control; under setting [4], 102 % of control.
Consider `CC(=O)OC1CCCC2=CC(=O)CCC21C` (configuration not stated), for which the T/C is 96 % of control under setting [2] and 92 % of control under setting [3].
As for `Cc1cc(N=Nc2ccc(S(=O)(=O)[O-])cc2)cc(C(=O)[O-])c1[O-].NC1CCCCC1N.[Na+].[Pt+4]`, the T/C reads like this: (endpoint: median survival time, dose: 3.12 mg/kg/injection, schedule: Q04DX003 (ip), vehicle: saline with Tween-80) 180 % of control and 287 % of control; (endpoint: median survival time, dose: 6.25 mg/kg/injection, schedule: Q04DX003 (ip), vehicle: saline with Tween-80) 265 % of control and 344 % of control; (endpoint: median survival time, dose: 12.5 mg/kg/injection, schedule: Q04DX003 (ip), vehicle: saline with Tween-80) 244 % of control and 310 % of control; (endpoint: median survival time, dose: 25.0 mg/kg/injection, schedule: Q04DX003 (ip), vehicle: saline with Tween-80) 122 % of control.
As to `c1cc2c(cc1NC1=NCCO1)CCC2`, the T/C is 103 % of control (endpoint: mean survival time, dose: 6.25 mg/kg/injection, schedule: Q04DX003 (ip), vehicle: saline with Tween-80); 108 % of control (endpoint: mean survival time, dose: 12.5 mg/kg/injection, schedule: Q04DX003 (ip), vehicle: saline with Tween-80); 111 % of control (endpoint: mean survival time, dose: 25.0 mg/kg/injection, schedule: Q04DX003 (ip), vehicle: saline with Tween-80).
As for `COc1nc(OC)c2ccn(C3CC(O)C(CO)O3)c2n1` (configuration not stated), the T/C is, setting by setting: (endpoint: median survival time, dose: 12.5 mg/kg/injection, schedule: Q01DX005 (ip), vehicle: saline) 106 % of control; (endpoint: median survival time, dose: 25.0 mg/kg/injection, schedule: Q01DX005 (ip), vehicle: saline) 103 % of control; (endpoint: median survival time, dose: 50.0 mg/kg/injection, schedule: Q01DX005 (ip), vehicle: saline) 102 % of control; (endpoint: median survival time, dose: 100.0 mg/kg/injection, schedule: Q01DX005 (ip), vehicle: saline) 93 % of control; (endpoint: median survival time, dose: 200.0 mg/kg/injection, schedule: Q01DX005 (ip), vehicle: saline) 98 % of control.
With `O=C(NNC(=S)Nc1cccc(C(F)(F)F)c1)c1ccncc1`, the T/C is 91 % of control (endpoint: mean survival time, dose: 12.5 mg/kg/injection, schedule: Q01DX009 (ip), vehicle: saline with Tween-80); 93 % of control under setting [9]; 88 % of control under setting [10]; 98 % of control (endpoint: mean survival time, dose: 100.0 mg/kg/injection, schedule: Q04DX002 (ip), vehicle: saline with Tween-80); 105 % of control (endpoint: mean survival time, dose: 200.0 mg/kg/injection, schedule: Q04DX002 (ip), vehicle: saline with Tween-80).
As to `CC(CCc1ccccc1)NC(C)C(O)c1ccc(O)cc1` (configuration not stated), the T/C under setting [9] is 102 % of control, the T/C under setting [10] was 96 % of control, the T/C under setting [1] was 102 % of control and the T/C under setting [2] was 102 % of control.
On to `O=C(O)C/C=C/Br`, for which the T/C runs as follows: (endpoint: mean survival time, dose: 75.0 mg/kg/injection, schedule: Q01DX001 (ip), vehicle: saline) 100 % of control; (endpoint: mean survival time, dose: 150.0 mg/kg/injection, schedule: Q01DX001 (ip), vehicle: saline) 100 % of control.
`CCOP(=O)(OCC)C(C)OC` (configuration not stated): the T/C is, setting by setting: under setting [7], 97 % of control; under setting [8], 108 % of control; (endpoint: mean survival time, dose: 400.0 mg/kg/injection, schedule: Q04DX003 (ip), vehicle: saline) 97 % of control.
Take `CCc1ncnc2cc(OCC3CO3)c(OC)cc12` (configuration not stated): the T/C was 109 % of control (endpoint: median survival time, dose: 6.25 mg/kg/injection, schedule: Q01DX009 (ip), vehicle: saline with Tween-80); 112 % of control (endpoint: median survival time, dose: 6.25 mg/kg/injection, schedule: Q01DX009 (ip), vehicle: saline); 123 % of control (endpoint: median survival time, dose: 7.5 mg/kg/injection, schedule: Q01DX009 (ip), vehicle: suspension in saline); 154 % of control (endpoint: median survival time, dose: 10.0 mg/kg/injection, schedule: Q03DX003 (ip), vehicle: saline); 116 % of control (endpoint: median survival time, dose: 12.5 mg/kg/injection, schedule: Q01DX009 (ip), vehicle: saline with Tween-80); 121 % of control (endpoint: median survival time, dose: 12.5 mg/kg/injection, schedule: Q01DX009 (ip), vehicle: saline). Also, the T/C (endpoint: median survival time, dose: 20.0 mg/kg/injection, schedule: Q01DX009 (ip), vehicle: other) was 156 % of control; the T/C (endpoint: median survival time, dose: 40.0 mg/kg/injection, schedule: Q01DX009 (ip), vehicle: other) was 166 % of control; the T/C (endpoint: median survival time, dose: 40.0 mg/kg/injection, schedule: Q04DX003 (ip), vehicle: other) is 112 % of control; the T/C (endpoint: median survival time, dose: 50.0 mg/kg/injection, schedule: Q01DX009 (ip), vehicle: DMSO) is 169 % of control; the T/C (endpoint: median survival time, dose: 50.0 mg/kg/injection, schedule: Q03DX003 (ip), vehicle: saline) is 152 % of control and 169 % of control; the T/C (endpoint: median survival time, dose: 80.0 mg/kg/injection, schedule: Q01DX001 (ip), vehicle: other) was 174 % of control. In addition, the T/C was 178 % of control (endpoint: median survival time, dose: 80.0 mg/kg/injection, schedule: Q01DX001 (ip), vehicle: water); 153 % of control (endpoint: median survival time, dose: 80.0 mg/kg/injection, schedule: Q04DX003 (ip), vehicle: other); 182 % of control (endpoint: median survival time, dose: 120.0 mg/kg/injection, schedule: Q01DX001 (ip), vehicle: other); 160 % of control (endpoint: median survival time, dose: 120.0 mg/kg/injection, schedule: Q01DX001 (ip), vehicle: water); 150 % of control (endpoint: median survival time, dose: 120.0 mg/kg/injection, schedule: Q04DX003 (ip), vehicle: other).
